According to ChEMBL document CHEMBL5131495, “Discovery of unique thiazolidinone-conjugated coumarins as novel broad spectrum antibacterial agents” (Eur J Med Chem, 2022):
≈ marks a conversion by molar mass, not a printed value.

Legend:
Format in all cases: functional
[1] = test system: Klebsiella pneumoniae; experiment: Antibacterial activity against Klebsiella pneumoniae assessed as inhibition of bacterial growth
[2] = test system: Enterococcus faecalis; experiment: Antibacterial activity against Enterococcus faecalis assessed as inhibition of bacterial growth
[3] = test system: Staphylococcus aureus; experiment: Antibacterial activity against methicillin resistant Staphylococcus aureus N315 assessed as inhibition of bacterial growth
[4] = test system: Acinetobacter baumannii; experiment: Antibacterial activity against Acinetobacter baumannii assessed as inhibition of bacterial growth
[5] = test system: Staphylococcus aureus; experiment: Antibacterial activity against Staphylococcus aureus ATCC 29213 assessed as inhibition of bacterial growth
[6] = test system: Staphylococcus aureus; experiment: Antibacterial activity against Staphylococcus aureus ATCC 25923 assessed as inhibition of bacterial growth
[7] = test system: Escherichia coli; experiment: Antibacterial activity against Escherichia coli assessed as inhibition of bacterial growth
[8] = test system: Pseudomonas aeruginosa; experiment: Antibacterial activity against Pseudomonas aeruginosa assessed as inhibition of bacterial growth
[9] = test system: Staphylococcus aureus; experiment: Antibacterial activity against Staphylococcus aureus assessed as inhibition of bacterial growth
[10] = test system: Pseudomonas aeruginosa; experiment: Antibacterial activity against Pseudomonas aeruginosa ATCC 27853 assessed as inhibition of bacterial growth
[11] = test system: Escherichia coli; experiment: Antibacterial activity against Escherichia coli ATCC 25922 assessed as inhibition of bacterial growth

Cc1cc(=O)oc2cc(/N=C3/S/C(=C\c4ccc(O)c(Br)c4)C(=O)N3CCO)ccc12
MIC [1]: 64 µg/mL (≈ 128 µM) | MIC [2]: 64 µg/mL (≈ 128 µM) | MIC [3]: 128 µg/mL (≈ 255 µM) | MIC [4]: 64 µg/mL (≈ 128 µM) | MIC [5]: 128 µg/mL (≈ 255 µM) | MIC [6]: 64 µg/mL (≈ 128 µM) | MIC [7]: 256 µg/mL (≈ 511 µM) | MIC [8]: 32 µg/mL (≈ 63.8 µM) | MIC [9]: 16 µg/mL (≈ 31.9 µM) | MIC [10]: 32 µg/mL (≈ 63.8 µM) | MIC [11]: 32 µg/mL (≈ 63.8 µM)

C=CCn1cc(/C=C2\S/C(=N/c3ccc4c(C)cc(=O)oc4c3)N(CCO)C2=O)c2ccccc21
MIC [1]: 8 µg/mL (≈ 16.5 µM) | MIC [2]: 128 µg/mL (≈ 264 µM) | MIC [3]: 128 µg/mL (≈ 264 µM) | MIC [4]: 64 µg/mL (≈ 132 µM) | MIC [5]: 64 µg/mL (≈ 132 µM) | MIC [6]: 32 µg/mL (≈ 65.9 µM) | MIC [7]: 128 µg/mL (≈ 264 µM) | MIC [8]: 64 µg/mL (≈ 132 µM) | MIC [9]: 128 µg/mL (≈ 264 µM) | MIC [10]: 32 µg/mL (≈ 65.9 µM) | MIC [11]: 128 µg/mL (≈ 264 µM)

Cc1cc(=O)oc2cc(/N=C3/S/C(=C\c4ccccc4F)C(=O)N3CCO)ccc12
MIC [1]: 32 µg/mL (≈ 75.4 µM) | MIC [2]: 0.25 µg/mL (≈ 0.589 µM) | MIC [3]: 4 µg/mL (≈ 9.42 µM) | MIC [4]: 16 µg/mL (≈ 37.7 µM) | MIC [5]: 64 µg/mL (≈ 151 µM) | MIC [6]: 32 µg/mL (≈ 75.4 µM) | MIC [7]: 32 µg/mL (≈ 75.4 µM) | MIC [8]: 4 µg/mL (≈ 9.42 µM) | MIC [9]: 1 µg/mL (≈ 2.36 µM) | MIC [10]: 1 µg/mL (≈ 2.36 µM) | MIC [11]: 16 µg/mL (≈ 37.7 µM)

Cc1ccc(/C=C2\S/C(=N/c3ccc4c(C)cc(=O)oc4c3)N(CCO)C2=O)o1
MIC [1]: 32 µg/mL (≈ 78 µM) | MIC [2]: 64 µg/mL (≈ 156 µM) | MIC [3]: 8 µg/mL (≈ 19.5 µM) | MIC [4]: 8 µg/mL (≈ 19.5 µM) | MIC [5]: 128 µg/mL (≈ 312 µM) | MIC [6]: 256 µg/mL (≈ 624 µM) | MIC [7]: 16 µg/mL (≈ 39 µM) | MIC [8]: 16 µg/mL (≈ 39 µM) | MIC [9]: 128 µg/mL (≈ 312 µM) | MIC [10]: 16 µg/mL (≈ 39 µM) | MIC [11]: 64 µg/mL (≈ 156 µM)

CCCCc1nc(Cl)c(/C=C2\S/C(=N/c3ccc4c(C)cc(=O)oc4c3)N(CCO)C2=O)[nH]1
MIC [1]: 64 µg/mL (≈ 131 µM) | MIC [2]: 128 µg/mL (≈ 263 µM) | MIC [3]: 128 µg/mL (≈ 263 µM) | MIC [4]: 64 µg/mL (≈ 131 µM) | MIC [5]: 64 µg/mL (≈ 131 µM) | MIC [6]: 128 µg/mL (≈ 263 µM) | MIC [7]: 32 µg/mL (≈ 65.7 µM) | MIC [8]: 256 µg/mL (≈ 526 µM) | MIC [9]: 8 µg/mL (≈ 16.4 µM) | MIC [10]: 256 µg/mL (≈ 526 µM) | MIC [11]: 64 µg/mL (≈ 131 µM)

Cc1cc(=O)oc2cc(/N=C3/S/C(=C\c4ccc[nH]4)C(=O)N3CCO)ccc12
MIC [1]: 64 µg/mL (≈ 162 µM) | MIC [2]: 128 µg/mL (≈ 324 µM) | MIC [3]: 64 µg/mL (≈ 162 µM) | MIC [4]: 4 µg/mL (≈ 10.1 µM) | MIC [5]: 64 µg/mL (≈ 162 µM) | MIC [6]: 128 µg/mL (≈ 324 µM) | MIC [7]: 2 µg/mL (≈ 5.06 µM) | MIC [8]: 256 µg/mL (≈ 647 µM) | MIC [9]: 64 µg/mL (≈ 162 µM) | MIC [10]: 32 µg/mL (≈ 80.9 µM) | MIC [11]: 128 µg/mL (≈ 324 µM)

Cc1cc(=O)oc2cc(/N=C3/S/C(=C\c4cccc(Cl)c4)C(=O)N3CCO)ccc12
MIC [1]: 32 µg/mL (≈ 72.6 µM) | MIC [2]: 32 µg/mL (≈ 72.6 µM) | MIC [3]: 8 µg/mL (≈ 18.1 µM) | MIC [4]: 4 µg/mL (≈ 9.07 µM) | MIC [5]: 32 µg/mL (≈ 72.6 µM) | MIC [6]: 8 µg/mL (≈ 18.1 µM) | MIC [7]: 32 µg/mL (≈ 72.6 µM) | MIC [8]: 2 µg/mL (≈ 4.54 µM) | MIC [9]: 32 µg/mL (≈ 72.6 µM) | MIC [10]: 1 µg/mL (≈ 2.27 µM) | MIC [11]: 64 µg/mL (≈ 145 µM)
